In article PMC9865752, “Design and Synthesis of (Z)-2-(Benzylamino)-5-benzylidenethiazol-4(5H)-one Derivatives as Tyrosinase Inhibitors and Their Anti-Melanogenic and Antioxidant Effects” (Molecules, 2023):
Like-named read-outs stand apart in the source and are kept apart here.

How the values were obtained:
[1] = system: B16F10 cells; experiment: Measurement of extracellular and intracellular melanin levels; type: cell-based, murine; settings: 20 µM; α-MSH plus IBMX stimulated B16F10 cells; 72 h
Procedure: To investigate the effects of derivative 8 on extracellular and intracellular melanin levels in B16F10 cells, the cells were treated with various concentrations (5, 10, and 20 µM) of derivative 8 for 1 h, in addition to co-treatment with α-MSH (0.5 µM) and 3-isobutyl-1-methylxanthine (IBMX; 200 µM) to enhance melanin biosynthesis in B16F10 cells. After 72 h of incubation, the effects of 8 on extracellular and intracellular melanin levels were determined by measuring the melanin absorbance in the culture media and cell lysates, respectively, at 405 nm using a microplate reader.
The effect of 8 on melanin production was measured using a standard melanin content assay, with minor modifications. Briefly, B16F10 cells were seeded at a density of 1 × 10^5 cells per well and allowed to adhere to the well bottoms for 24 h under the conditions used for cell cultures. […] After incubation for 72 h at 37 °C in a 5% CO2 atmosphere, melanin levels were determined. To measure the extracellular melanin levels, the absorbance of each well of the culture medium was measured at 405 nm. […] Cultured cells were washed twice with PBS, and the pellets obtained were dissolved using 1 N NaOH solution (200 µL, 10% DMSO) at 60 °C for 1 h. Cell lysates were transferred to the wells of a 96-well plate, and the optical density of melanin dissolved in each well was measured at 405 nm in aqueous DMSO solution using a microplate reader (VersaMax; Molecular Devices).

[2] = molecular target: mushroom tyrosinase; experiment: Mushroom tyrosinase inhibition assay; type: biochemical; settings: for IC50: mean ± SEM of three experiments
Procedure: As mushroom tyrosinase is commercially available and relatively cheap, it is used as a tool for the identification of novel tyrosinase inhibitors. Here, we examined the tyrosinase inhibitory activities of the 14 BABT derivatives against mushroom tyrosinase in the presence of L-tyrosine or L-dopa as substrates.
Mushroom tyrosinase inhibitory activities of BABT derivatives were determined as described previously, with minor modifications. L-Tyrosine and L-dopa were used as substrates to evaluate the enzyme activity. […] Assay mixtures were incubated at 37 °C for 30 min, and dopachrome amounts synthesized were determined by measuring the optical density of each well at 475 nm using a microplate reader (VersaMax; Molecular Devices, Sunnyvale, CA, USA).

[3] = SIN-1-induced ROS scavenging assay; settings: 20 µM; SIN-1 as ROS generator; DCFH-DA probe
From the text: The scavenging activities of the BABT derivatives 1–14 against ROS and peroxynitrite (ONOO^−) were investigated because the antioxidant activities of the compounds may modulate melanogenesis. To measure the ROS scavenging activities of BABT derivatives, 2′,7′-dichlorodihydrofluorescein diacetate (DCFH-DA) and 3-morpholinosydnonimine (SIN-1) were used as a fluorogenic probe and ROS generator, respectively. The reaction of DCFH-DA with esterase produces 2′,7′-dichlorodihydrofluorescein (DCFH), which generates the fluorescent compound 2′,7′-dichlorofluorescein (DCF) by reacting with ROS produced by SIN-1. Therefore, ROS scavenging activities were determined by measuring the DCF fluorescence remaining after the BABT derivatives scavenged the ROS generated by SIN-1. […] BABT derivatives and Trolox, the positive control, were used at a concentration of 20 µM.
The ROS scavenging activities of the BABT derivatives were measured using an oxidant-sensitive fluorescent probe. Derivatives or Trolox (10 µL; final concentration: 20 µM) were seeded in a black 96-well plate. Then, 10 µL of SIN-1 (10 µM) was added to induce radical species generation and mixed with 180 µL of sodium phosphate buffer (pH 7.4) containing 12.5 µM DCF-DA and 600 units of esterase. Fluorescence intensity was measured at emission and excitation wavelengths of 535 and 485 nm, respectively, using a fluorescence microplate reader (Berthold Technologies GmbH & Co., Wien, Austria). Trolox was used as the positive control.

[4] = Peroxynitrite scavenging assay; settings: 20 µM; SIN-1 as generator; DHR123 probe
Procedure: The effects of the BABT derivatives on peroxynitrite scavenging activities were also examined using SIN-1 as an RNS generator and dihydrorhodamine (DHR123) as an ROS indicator. DHR123 was converted to fluorescent rhodamine 123 by peroxynitrite generated by SIN-1. Therefore, the peroxynitrite scavenging activities of 1–14 were assessed by measuring the fluorescence of rhodamine 123. BABT derivatives and penicillamine, the positive control, were used at a concentration of 20 µM.
The peroxynitrite scavenging activities of the BABT derivatives were assessed using the method developed by Kooy, involving the monitoring of highly fluorescent rhodamine 123, which was rapidly produced from non-fluorescent DHR123 in the presence of peroxynitrite. Rhodamine buffer (pH 7.4) was composed of 50 mM sodium phosphate dibasic, 50 mM sodium phosphate monobasic, 90 mM sodium chloride, 5 mM potassium chloride, and 100 µM DTPA. A 10 µL aliquot of BABT derivatives or PCA (final concentration: 20 µM) was seeded in a black 96-well plate. Then, 10 µL of SIN-1 (10 µM) was added to induce radical species generation and mixed with 180 µL of rhodamine buffer. Fluorescence intensity was measured at emission and excitation wavelengths of 535 and 485 nm, respectively, using a fluorescence microplate reader (Berthold Technologies GmbH & Co.). PCA was used as the positive control.

[5] = DPPH radical scavenging assay; settings: test samples 500 µM; DPPH 0.18 mM; 30 min in the dark
Procedure: DPPH is a light-sensitive compound containing free radicals. The DPPH assay is one of the most common methods for evaluating the antioxidant activity of a compound. The effects of BABT derivatives on DPPH radical scavenging activities were evaluated using L-ascorbic acid as a positive reference control. DPPH radical scavenging activities were measured after leaving the mixed samples (test samples of 500 µM plus DPPH solution of 0.18 mM) in the dark for 30 min. To determine the radical scavenging activities, the absorbance of the mixed samples was measured at 517 nm.
According to previously described methods, with minor modifications, the DPPH radical scavenging activities of BABT derivatives 1–14 were measured. A DPPH (0.2 mM) and methanol solution (180 µL) was mixed with 20 µL of a DMSO solution containing 5 mM BABT derivative, or with 20 µL of an aqueous solution of 5 mM L-ascorbic acid, in each well of a 96-well plate and kept at ambient temperature in the dark for 30 min. The optical density of each well was measured at 517 nm using a microplate reader (VersaMax; Molecular Devices). L-Ascorbic acid was used as a positive reference control, and the DPPH radical scavenging abilities of BABT derivatives were compared with those of L-ascorbic acid. All experiments were performed independently, thrice.

[6] = substrate L-dopa, read-out: IC50 (µM) L-Dopa
[7] = substrate L-tyrosine, read-out: IC50 (µM) L-Tyrosine

| Structure (SMILES) | IC50 [2, 6] [µM] | IC50 [2, 7] [µM] | ROS scavenging activity (in words) [3] | also measured |
| --- | --- | --- | --- | --- |
| O=c1cc(CO)occ1O [kojic acid, Kojic acid, reference compound] | – | – | – | extracellular melanin levels compared to untreated control [1]: 1.5 fold; intracellular melanin levels compared to untreated control [1]: 1.9 fold |
| CCOc1cc(/C=C2\SC(NCc3ccccc3)=NC2=O)ccc1O [Compound 6, (Z)-2-(benzylamino)-5-(3-ethoxy-4-hydroxybenzylidene)thiazol-4(5H)-one] | 248 ± 11.5 | 199 ± 8.57 | – | – |
| COc1ccc(/C=C2\SC(NCc3ccccc3)=NC2=O)cc1 [Compound 2, (Z)-2-(benzylamino)-5-(4-methoxybenzylidene)thiazol-4(5H)-one] | 239.4 ± 2.38 | 126 ± 10 | strongly reduced the ROS levels enhanced by SIN-1 | fold decrease of tyrosinase inhibitory activity versus derivative 1 ([2]; substrate L-dopa): 3.7 fold; fold lower tyrosinase inhibitory activity than derivative 1 ([2]; substrate L-tyrosine): 4.6 fold |
| COc1ccc(/C=C2\SC(NCc3ccccc3)=NC2=O)c(OC)c1 [Compound 10, (Z)-2-(benzylamino)-5-(2,4-dimethoxybenzylidene)thiazol-4(5H)-one] | 214 ± 6.29 | 293 ± 13.1 | – | mushroom tyrosinase inhibitory activity (in words) ([2]; substrate L-tyrosine): little-to-no mushroom tyrosinase inhibitory activity |
| COc1cc(/C=C2\SC(NCc3ccccc3)=NC2=O)ccc1O [Compound 5, (Z)-2-(benzylamino)-5-(4-hydroxy-3-methoxybenzylidene)thiazol-4(5H)-one] | > 300 | 148.3 ± 1.12 | moderate ROS scavenging activities | – |
| COc1ccc(/C=C2\SC(NCc3ccccc3)=NC2=O)cc1OC [Compound 11, (Z)-2-(benzylamino)-5-(3,4-dimethoxybenzylidene)thiazol-4(5H)-one] | > 300 | > 300 | – | mushroom tyrosinase inhibitory activity (in words) ([2]; substrate L-tyrosine): little-to-no mushroom tyrosinase inhibitory activity |
| O=C1N=C(NCc2ccccc2)S/C1=C\c1ccc(O)cc1 [Compound 1, (Z)-2-(benzylamino)-5-(4-hydroxybenzylidene)thiazol-4(5H)-one] | 65.1 ± 8.29 | 27.5 ± 2.93 | strongly reduced the ROS levels enhanced by SIN-1 | fold higher IC50 value with L-dopa than with L-tyrosine ([2]; L-dopa versus L-tyrosine as substrate): 2 fold; peroxynitrite scavenging activity (in words) [4]: strong ROS and peroxynitrite scavenging activities |
| O=C1N=C(NCc2ccccc2)S/C1=C\c1ccc(F)c(F)c1 [Compound 4, (Z)-2-(benzylamino)-5-(3,4-difluorobenzylidene)thiazol-4(5H)-one] | > 300 | 289 ± 14.7 | moderate ROS scavenging activities | – |
| COc1cc(/C=C2\SC(NCc3ccccc3)=NC2=O)cc(OC)c1OC [Compound 14, (Z)-2-(benzylamino)-5-(3,4,5-trimethoxybenzylidene)thiazol-4(5H)-one] | 231 ± 7.43 | 192 ± 9.04 | – | mushroom tyrosinase inhibitory activity (in words) ([2]; substrate L-tyrosine): little-to-no mushroom tyrosinase inhibitory activity |
| CC(C)(S)[C@@H](N)C(=O)O [penicillamine, reference compound] | – | – | – | peroxynitrite scavenging activity (in words) [4]: significantly reduced the peroxynitrite levels increased by SIN-1 treatment |
| O=C1O[C@H]([C@@H](O)CO)C(O)=C1O [L-Ascorbic acid, L-ascorbic acid, reference compound] | – | – | – | DPPH radical scavenging activity, % inhibition [5]: 97% |
| O=C1N=C(NCc2ccccc2)S/C1=C\c1ccc(F)cc1F [Compound 3, (Z)-2-(benzylamino)-5-(2,4-difluorobenzylidene)thiazol-4(5H)-one] | > 300 | > 300 | moderate ROS scavenging activities | – |
| COc1cc(/C=C2\SC(NCc3ccccc3)=NC2=O)cc(OC)c1O [Compound 12, (Z)-2-(benzylamino)-5-(4-hydroxy-3,5-dimethoxybenzylidene)thiazol-4(5H)-one] | > 300 | 166 ± 8.04 | – | DPPH radical scavenging activity, % inhibition [5]: 62% |
| CC(C)(C)c1cc(/C=C2\SC(NCc3ccccc3)=NC2=O)cc(C(C)(C)C)c1O [Compound 13, (Z)-2-(benzylamino)-5-(3,5-di-tert-butyl-4-hydroxybenzylidene)thiazol-4(5H)-one] | > 300 | 137 ± 10.7 | – | – |
